Seven compounds from ChEMBL document CHEMBL1687846, “Ex vivo activity of histone deacetylase inhibitors against multidrug-resistant clinical isolates of Plasmodium falciparum and P. vivax” (Antimicrob Agents Chemother, 2011) can be followed below.

Assay [1] deals with Plasmodium falciparum. The assay can be described thus: Antimalarial activity against trophozoites stage of Plasmodium falciparum assessed as parasites growth inhibition using giemsa staining after 24 to 56 hrs by microscopic analysis in presence of 10% human serum. Format: functional, organism-based.
The subject of assay [2] is Plasmodium vivax. Nature of the assay: Antimalarial activity against trophozoites stage of Plasmodium vivax assessed as parasites growth inhibition using giemsa staining after 24 to 56 hrs by microscopic analysis in presence of 20% human serum. Format: functional, organism-based.
Assay [3] concerns Plasmodium vivax. Nature of the assay: Antimalarial activity against Plasmodium vivax assessed as parasites growth inhibition using giemsa staining after 24 to 56 hrs by microscopic analysis in presence of 20% human serum. Format: functional, organism-based.
In assay [4] the test system is Plasmodium falciparum. Nature of the assay: Antimalarial activity against chloroquine-sensitive Plasmodium falciparum 3D7 assessed as inhibition of [3H]hypoxanthine incorporation. Format: functional, organism-based.
For assay [5], the system named is Plasmodium falciparum. Nature of the assay: Antimalarial activity against Plasmodium falciparum assessed as parasites growth inhibition using giemsa staining after 24 to 56 hrs by microscopic analysis in presence of 10% human serum. Format: functional, organism-based.
Assay [6] deals with Plasmodium falciparum. The assay can be described thus: Antimalarial activity against ring stage of Plasmodium falciparum assessed as parasites growth inhibition using giemsa staining after 24 to 56 hrs by microscopic analysis in presence of 10% human serum. Format: functional, organism-based.
Assay [7] has as its system Plasmodium vivax. The assay can be described thus: Antimalarial activity against ring stage of Plasmodium vivax assessed as parasites growth inhibition using giemsa staining after 24 to 56 hrs by microscopic analysis in presence of 20% human serum. Format: functional, organism-based.
Assay [8] has as its system Plasmodium falciparum. Nature of the assay: microbe, parasite or virus in culture. As to conditions: K1, 3 h.
Description: Antimalarial activity against chloroquine-resistant Plasmodium falciparum K1 assessed as inhibition of [3H]hypoxanthine incorporation

For the compound `CCN(CC)Cc1cc(Nc2ccnc3cc(Cl)ccc23)ccc1O`, the IC50 with Plasmodium falciparum [1] was found to be 9.6 nM; with Plasmodium vivax [2] it was 21.1 nM; with Plasmodium vivax [3], 9.1 nM; in the assay on Plasmodium falciparum [4] it was 2 nM; in the assay on Plasmodium falciparum [5], 5 nM.
Turning to `O=C(/C=C/c1ccccc1)N[C@@H](CCCCCC(=O)NO)C(=O)Nc1cccc2cccnc12`, the IC50 is 519 nM in the assay with Plasmodium falciparum [1]; 438 nM in the assay on Plasmodium vivax [2]; 492 nM in the assay with Plasmodium falciparum [6]; 545 nM in the assay on Plasmodium vivax [7]; 503 nM with Plasmodium vivax [3]; 533 nM in the assay with Plasmodium falciparum [5].
On to `O=C(CCCCC[C@H](NC(=O)c1cc2ccccc2[nH]1)C(=O)Nc1cccc2cccnc12)NO`, for which the IC50 worked out at 467 nM in the assay with Plasmodium falciparum [1]; 214 nM in the assay with Plasmodium vivax [2]; 238 nM in the assay with Plasmodium falciparum [6]; 327 nM with Plasmodium vivax [7]; 278 nM in the assay on Plasmodium vivax [3]; 266 nM with Plasmodium falciparum [5].
With `C[C@H]1[C@H](OC(=O)CCC(=O)O)O[C@@H]2O[C@@]3(C)CC[C@H]4[C@H](C)CC[C@@H]1[C@@]24OO3` [ARTESUNATE], the IC50 stood at 1.19 nM in the assay on Plasmodium falciparum [1]; 0.39 nM in the assay with Plasmodium vivax [2]; 0.88 nM in the assay on Plasmodium falciparum [6]; 0.75 nM in the assay on Plasmodium vivax [7]; 1 nM in the assay with Plasmodium falciparum [8]; 0.74 nM with Plasmodium vivax [3]. In addition, the results for the concentration for half-maximal inhibition (IC50) in the assay on Plasmodium falciparum [4] and in the assay on Plasmodium falciparum [5] were 2 nM and 0.92 nM, respectively.
`CCN(CC)CCCC(C)Nc1ccnc2cc(Cl)ccc12` (configuration not stated) [CHLOROQUINE]: the IC50 stood at 841 nM in the assay on Plasmodium vivax [2] and 40.4 nM in the assay with Plasmodium vivax [3].
In the case of `OC(c1cc(C(F)(F)F)nc2c(C(F)(F)F)cccc12)C1CCCCN1` (configuration not stated) [MEFLOQUINE], the half-inhibitory concentration (IC50) with Plasmodium vivax [2] turned out to be 10.2 nM; in the assay on Plasmodium vivax [7] it was 9.2 nM; with Plasmodium vivax [3], 7.7 nM; with Plasmodium falciparum [5] it was 6.3 nM.
Regarding `Clc1ccc2c(N3CCN(CCCN4CCN(c5ccnc6cc(Cl)ccc56)CC4)CC3)ccnc2c1` [PIPERAQUINE], the IC50 in the assay on Plasmodium vivax [2] was 15.9 nM; in the assay on Plasmodium vivax [7], 15.5 nM; in the assay with Plasmodium falciparum [8] it was 11 nM; with Plasmodium vivax [3], 13.2 nM; in the assay on Plasmodium falciparum [4], 3 nM; with Plasmodium falciparum [5], 10.8 nM.

As usually defined, the IC50 is the concentration needed to halve the response being measured.
